pIC50: −log10 of the molar value.

The inhibition is the share of the control response that was lost under treatment. Broadly, the pIC50 is the negative decadic logarithm of the IC50, by convention in mol/L.

For assay [1], the system named is adhesion of polymorphonuclear cells to HUVEC cells. The assay can be described thus: Adhesion assay, PMN to HUVEC, IL-1β stimulus. Type of assay: cell-based. Conditions: Homo sapiens, 4 h, read-out: inhibition of the adhesion. The procedure:
(§1) Human umbilical vein endothelial cells (HUVEC cells) were suitably treated, grown to confluence in 24 well plates, washed and maintained for one day in M199 medium supplemented with 10% BCS (Bovine Calf Serum).
(§2) Polymorphonuclear cells (PMN) were prepared from citrated venous blood obtained from healthy volunteers. Polymorphonuclear cells (PMN), at the concentration of 10^7 cells/ml were labeled with fluorescein diacetate (5 μg/ml) for 30 minutes at 37° C., washed with BSS and plated at the concentration of 10^6 cells per well in a final volume of 0.25 ml of BSS.
(§3) The antiadhesive effects of cholesteryl butyrate nanoparticles prepared in example 1 and of sodium butyrate were measured by an adhesion assay. In detail, human polymorphonuclear cells and HUVEC endothelial cells were incubated with increasing concentrations of cholesteryl butyrate or sodium butyrate nanoparticles in presence of a substance, PAF or IL-1β, which induces adhesion of PMN cells to endothelial HUVEC cells. Adhesion was then assessed by fluorescence microimaging.
b) The effect of cholesteryl butyrate nanoparticles prepared in example 1 or of sodium butyrate on adhesion of polymorphonuclear cells to HUVEC cells was also examined in presence of the adhesion stimulus provided by IL-1β (0.05 ng/ml). […]

Assay [2] has the same test system. The assay can be described thus: Adhesion assay, PMN to HUVEC, PAF stimulus. Type of assay: cell-based. Conditions: Homo sapiens, 5 min. The procedure: as §1, §2, §3
a) The effect of cholesteryl butyrate nanoparticles prepared as in example 1, or of sodium butyrate, on adhesion of polymorphonuclear cells to HUVEC cells was examined in presence of the adhesion stimulus provided by PAF (10^−7M). […]

Turning to `CCCC(=O)[O-].[Na+]` [sodium butyrate], the inhibition at 10 µM in assay [1] turned out to be 22%; in assay [2] (read-out: inhibition of the adhesion), 74%. The negative logarithm of the IC50 (pIC50) in assay [2] (read-out: IC50 (inhibition of adhesion)) is 6.40.

Source of the values: patent publication US20090306032A1, “Use of solid lipid nanoparticles Comprising Cholesteryl Propionate and/or Cholesteryl Butyrate” (priority 2005, published 2009).
